Reference: US8598126B2, “Peptides for inhibiting the HPV-E6 oncoprotein” (priority 2008, dated 2013)

Key:
[1] = system: HPV16-positive SiHa cells; test: Clonogenic survival assay, SiHa; type: cell-based; settings: stable expression
Text: HPV16-positive cell lines SiHa and MRI-H-186, HPV18-positive HeLa cells and the HPV-negative osteosarcoma cell line U-2 OS were transfected with peptide expression vectors which allowed for hygromcyin B selection (pCEP4, Invitrogen). After 6-7 days of selection, cells were fixed and stained with formaldehyde-crystal violet solution.

[2] = system: HPV16-positive CaSki cells; test: Clonogenic survival assay, CaSki; type: cell-based; settings: stable expression
HPV16 E6 = HPV16 E6 (Human papillomavirus type 16, UniProt P03126); settings: FIG. 1, solubility-optimized versions and mutants
Sequence of HPV16 E6 (P03126 whole entry): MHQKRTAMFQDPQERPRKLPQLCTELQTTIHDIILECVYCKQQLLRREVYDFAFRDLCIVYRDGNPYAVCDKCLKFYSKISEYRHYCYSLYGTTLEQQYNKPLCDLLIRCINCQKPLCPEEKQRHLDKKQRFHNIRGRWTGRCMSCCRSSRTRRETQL

Substance | growth in clonogenic survival assay [1] | growth in clonogenic survival assay [2] | activity (binding to HPV16 E6) of pep 11 variants and mutants (HPV16 E6)
E6AP peptide: E6 binding consensus motif within E6AP (SEQ ID NO: 9) (KEKEEYNSNSSSIASIGLI; E6 pep11*) [reference compound] | showed no effect | showed no effect | –
pep11**m (EYNSNCSCIACIGLI; E6 pep11*) | showed no effect | showed no effect | inactive
